{"source": "patent US6534082B1", "about": "“Method of treating disorders of the eye” (Duke University, priority 1994, dated 2003)", "tested_on": "enucleated cow eyes", "assay": "Constant pressure perfusion of enucleated cow eyes, outflow facility", "settings": "5 h perfusion, 22° centigrade, 15 mm of mercury; for increase in outflow facility at the end of the experiment versus initial baseline: 0.125 mM drug in perfusion medium, ± SEM; for increase in outflow facility at the end of the experiment versus initial baseline, drug plus cysteine: 0.125 mM drug plus 0.625 mM cysteine", "protocol": "Enunciated cow eyes were obtained from a local commercial abattoir, immediately chilled, and then perfused within twenty-four hours using a standard constant pressure perfusion technique. Pairs of eyes from a single animal were used for each experiment and subjected to the same manipulation except for the experimental drug in the experimental eye of perfusion. Briefly, a 5 mm central cornea trephine button was removed from each eye. Radial iridotomy was performed to prevent artificial deepening of the anterior chamber during perfusion. The anterior chamber was then gently irrigated with perfusion medium to remove pigment which might have been liberated by the iridotomy. A Grant stainless steel fitting was then placed into the cornea and connected by twenty-three gauge polyethylene tubing to the fluid reservoir of the perfusion apparatus.\nThe perfusion medium was Dulbecco's phosphate-buffered salt solution (PBS) (Grand Island Biological Company, Grand Island, N.Y.) with added 5.5 mM glucose. All solutions were filtered through a 0.2 μm Nuclepore filter.\nThe initial flow value was determined after the eyes had been perfused for one hour which allowed sufficient time to achieve adequate stability. The corneal fitting was removed, and the anterior chamber was gently emptied and refilled with fresh perfusion medium with added drug or sham solution. The corneal fitting was replaced and the eye was perfused for an additional five hours. The outflow facility (flow/pressure) was calculated at the end of the experiment and compared to the initial baseline after the initial hour (pre-drug, both eyes received control perfusion medium for the first hour). The change in the experimental eye was compared to the change in the fellow control eye by a paired T-test. Control eyes were treated similarly except that an osmotically equivalent amount of sodium chloride was added to the perfusion medium in place of the drug. All perfusions were performed at 22° centigrade and the perfusion pressure was 15 mm of mercury."}
{"smiles": "CC1(c2ccccc2)Cc2cc(OCC(=O)O)c(Cl)c(Cl)c2C1=O", "note": "(stereo not shown) [indacrinone]", "values": [{"measurement": "increase in outflow facility at the end of the experiment versus initial baseline", "result": "113%±24%"}, {"measurement": "increase in outflow facility at the end of the experiment versus initial baseline, drug plus cysteine", "result": "91%±8"}]}
{"smiles": "O=C(O)COc1ccc(C(=O)c2cccs2)c(Cl)c1Cl", "note": "[ticrynafen]", "values": [{"measurement": "increase in outflow facility at the end of the experiment versus initial baseline", "result": "102%±23%"}, {"measurement": "increase in outflow facility at the end of the experiment versus initial baseline, drug plus cysteine", "result": "80%±9%"}]}
